The values below come from patent US10232023B2, “Methods for treatment of and prophylaxis against inflammatory disorders” (THE UNIVERSITY OF UTAH RESEARCH FOUNDATION, priority 2013, dated 2019).

In one experiment the test system is NET formation. Briefly: NET formation inhibition (test not described). The following applies: no test described.
Another experiment concerns PMA-stimulated PMNs. Briefly: Nuclear decondensation (nuclear area) assay. The experiment is classed as cell-based, human. The note with it: CRISPP 1 nM, SCR 1 nM, Sivelestat 200 nM; PMA 20 nM, 2 hours; vs PMA alone. As to the method:
Using techniques modified from Papayannopoulos et al., J Cell Biol, 2010, 191: 677-691, nuclear area assays were used for PMA-stimulated PMNs as a surrogate for NET formation. PMNs were stimulated with PMA (20 nM) for 2 hours and then visualized via live cell imaging with a cell permeable DNA dye. Images from 5 randomly selected high power fields were captured and the nuclear area of all PMNs on each visual field was quantitated using IMAGEJ software. Nuclear areas were compared for PMNs stimulated with PMA with PMNs pre-incubated with CRISPP (1 nM), SCR (1 nM), or the NE inhibitor Sivelestat (200 nM). […] Next, immunocytochemical experiments designed to see whether CRISPP is taken up by human PMNs were performed. The CRISPP-F and SCR-F peptides and FLAG-tag specific primary antibodies were used to assess cellular location. […] CRISPP can inhibit nuclear chromatin decondensation, which is consistent with the selective inhibition of NET formation by CRISPP and nNIF. This process may involve inhibition of NE activity.
PMNs were isolated and resuspended to 2×10^6 cells/mL in M-199 media. […] 5 randomly selected high power visual fields per sample were captured via confocal microscopy and analyzed for nuclear area using the cell-permeable, fluorescent DNA dye SYTO Green. The nuclear pixel areas of >100 individual cells per high power field were determined using IMAGE-J software (NIH).

For the next experiment, the system named is LPS-stimulated PMNs. Briefly: NET formation by LPS-stimulated adult human PMNs (live cell imaging, histone H3 release). The experiment is classed as cell-based. The following applies: LPS 100 ng/mL; for NET formation by LPS-stimulated PMNs: healthy adult PMNs, peptide/protein pre-incubation 1 hour (1 nM where stated).
Experiment [1] deals with human PMNs stimulated with phorbol 12-myristate acetate (PMA). The following applies: background statement; cited from earlier work.
Experiment [2] concerns PMNs isolated from healthy adult donors. The experiment is described as follows: PMN chemotaxis, modified Boyden Chamber assay. The class given is cell-based, human. The following applies: 1 nM, one hour pre-incubation; IL-8 2 ng/mL. How it is done: Chemotaxis by PMNs isolated from healthy adult donors was assessed using a modified Boyden Chamber assay±a one hour pre-incubation […] (1 nM), or SCR (1 nM). Recombinant human IL-8 (2 ng/mL) was used as the chemoattractant. Chemotaxis through a 5 micron filter was determined by counting PMNs in 10 randomly selected high-power fields as previously described in Hill et al., Lancet, 1974, 2: 617-619. In separate experiments, […], or SCR (all at 1 nM) were evaluated for chemoattractant activity using the same system.

Experiment [3] deals with Outbred Swiss-Webster mice, E. coli peritonitis. The experiment is described as follows: Murine E. coli peritonitis: peritoneal fluid and membrane analysis. The experiment is classed as in vivo, mouse. As to the method: Outbred Swiss-Webster mice were injected intraperitoneally with 4.5×10^7 colony-forming units (cfu) of E. coli±nNIF, CRISPP, or scrambled control peptide (SCR) (10 mg/kg, IP injection) one hour prior to E. coli infection. At the 3 hour time point after infection, 3 mice were sacrificed and the peritoneal fluid and peritoneal tissue were collected and analyzed for leukocyte accumulation, bacteriology, and in vivo NET formation. […] See Fuchs et al., J Cell Biol, 2007, 176: 231-241. The number of E. coli cfu/mL of peritoneal fluid in CRISPP pretreated mice was also determined compared to SCR mice (see FIG. 17C).
Animals were treated with CRISPP (10 mg/kg), nNIF (10 mg/kg), or SCR (10 mg/kg) by i.p. injection 1 hour prior to infection (E. coli, 4.5×10^7 cfu/mouse, i.p. injection) or stimulation (LPS, 25 mg/kg, i.p. injection (SIGMA)). Control mice were injected with saline alone. The mice were sacrificed in a CO2 chamber 3 hours post-infection/stimulation with the peritoneal contents harvested and analyzed. Briefly, the skin of the abdomen was cut open in the midline after thorough disinfection and without injuring the muscle. The peritoneal cavity was lavaged with sterile saline solution ([…]) and analyzed for in vivo NET formation, bacteriology, and leukocyte accumulation. NETs in the peritoneal fluid were qualitatively and quantitatively analyzed using live cell imaging with confocal microscopy and histone release assays. NETs on the inner surface of the peritoneal membrane were assessed quantitatively using live cell imaging followed by standardized grid analysis of 5 randomly selected high power visual fields per tissue sample (IMAGE-J software, NIH). Peritoneal bacterial colony forming units (cfu) counts were quantified by permeabilizing all recovered leukocytes with 0.1% Triton-X 100 for 10 minutes and performing serial dilutions and bacterial cultures on 5% sheep blood agar plates (HARDY DIAGNOSTICS). After a 24-hour incubation, bacterial counts were determined. Total leukocyte counts in the peritoneal lavage were determined in Neubauer chambers using an optical microscope after dilution in Turk's solution (2% acetic acid). Differential leukocyte analysis was performed using a 60× oil immersion objective to assess morphology of cyto-centrifuged cells stained with May-Grunwald-Giemsa dye.

In experiment [4] the test system is PMA-stimulated adult PMNs. The experiment is described as follows: NET formation by PMA-stimulated adult human PMNs. The class given is cell-based. The note with it: pre-incubation 1 nM, 1 hour; PMA 20 nM.
Experiment [5] has as its system PMNs isolated from healthy adult donors. The experiment is described as follows: PMN phagocytosis of E. coli BIOPARTICLES
The class given is cell-based, human. The note with it: 1 nM, 60 minutes pre-incubation, 4 hours. As to the method: PMNs were isolated from blood of healthy adult donors and resuspended in M-199 at a concentration of 2×10^6 cells/mL. Leukocytes were pre-incubated for 60 minutes under standard conditions with cytochalasin B and […] (1 nM), or SCR (1 nM). Following pre-incubation, PMNs were incubated with 6×10^6 E. coli BIOPARTICLES (E-13231, MOLECULAR PROBES) on a rotator for 4 hours under standard conditions. The PMNs were then washed and resuspended in the starting volume in M-199 before being spun down onto glass coverslips and fixed with 2% paraformaldehyde for 10 minutes and permeabilized with 0.1% Triton-X-100 for 10 minutes. Leukocytes were stained with WGA 555 (INVITROGEN) and TO[…] (MOLECULAR PROBES) and randomly selected high power visual field images were captured using confocal microscopy. IMAGE-J software (NIH) was used to determine the percentage of PMNs that were positive for fluorescently labeled E. coli BIOPARTICLES detected at 488 nm.

For experiment [6], the system named is LPS-stimulated human PMNs. The experiment is described as follows: Reactive oxygen species generation, dihydrorhodamine assay. The experiment is classed as cell-based. The following applies: 1 nM, 1 hour pre-incubation; LPS 100 ng/mL. How it is done: Human PMNs isolated from healthy adult whole blood were resuspended to a concentration of 2×10^6 cells/mL in M-199 media and pre-incubated±[…] (1 nM) or SCR (1 nM) peptide for 1 hour under standard conditions. The PMNs were then stimulated with LPS (100 ng/mL) for 1 hour, washed, and resuspended with a dihydrorhodamine (7.25 mM; D-632, MOLECULAR PROBES) and catalase (1000 Units/mL; C-40, SIGMA) mixture and incubated at 37° C. for 10 minutes. After incubation, samples were placed at 4° C. and analyzed for ROS-dependent fluorescence using a BECTON-DICKINSON FACSCAN device equipped with CELLQUEST software.

The mark [7] stands for this setting: 10 mg/kg IP pretreatment, vs SCR control.

Regarding “A1ATm^358: cleavage fragment of full length A1AT (SEQ ID NO:3), an nNIF-related peptide (PMSIPPEVKFNKPFVFLMIEQNTKSPLFMGKVVNPTQK; homo sapiens)”, the NET formation entry in the experiment with NET formation is listed as “inhibit NET formation”.
As to `CC(C)(C)C(=O)Oc1ccc(S(=O)(=O)Nc2ccccc2C(=O)NCC(=O)O)cc1` [Sivelestat, reference compound], in the experiment on PMA-stimulated PMNs, the “Nuclear area of PMA-stimulated PMNs” value is listed as “significant decrease in nuclear area”.
As to alpha 1-antitrypsin [A1AT], the “NET formation by LPS-stimulated PMNs” value with LPS-stimulated PMNs is given as “failed to inhibit NET formation”. Besides, in the experiment with LPS-stimulated PMNs (rAAT (1 nM) added to nNIF-depleted cord blood plasma, listed as recombinant full length A1AT), the “NET formation by LPS-stimulated PMNs, recombinant AAT in nNIF-depleted cord blood plasma” value is “did not inhibit NET formation”. For the same molecule, in experiment [1], the “NET formation in PMA-stimulated human PMNs” value is “does not inhibit NET formation”.
Consider “neonatal NET-Inhibitory Factor (KAVLTIDEKGTEAAGAMFLEAIPMSIPPEVKFNKPFVFLMIEQNTKSPLFMGKVVNPTQK; listed as Homo sapiens) [nNIF]”, for which, in experiment [2], the PMN chemotaxis result is reported as “did not significantly inhibit”. Also, in experiment [3] (setting [7]), the “NET formation by histone H3 release assay of the peritoneal fluid” value was “significant quantitative decrease” and the “NET formation in the peritoneal fluid (live cell imaging)” value is recorded as “qualitative decrease”. Further, in experiment [3] (freshly resected peritoneal membrane, live cell imaging, standardized grid), the “Peritoneal membrane-associated NET formation” value is “qualitative and quantitative decrease”. Besides, the “NET formation by LPS-stimulated PMNs” value in the experiment with LPS-stimulated PMNs is on record as “significantly inhibited NET formation”. The “NET formation by PMA-stimulated PMNs” value in [4] is reported as “significantly inhibited NET formation”. For the same molecule, the PMN phagocytosis entry in experiment [5] was “did not significantly inhibit”. In addition, the “Reactive oxygen species generation” value in [6] is “did not significantly inhibit”.

B1: recombinant serpin B1: serine protease inhibitor expressed as a cytoplasmic protein by human PMNs (protein, UniProt P30740 1-379, looked up)
Leukocyte elastase inhibitor: MEQLSSANTRFALDLFLALSENNPAGNIFISPFSISSAMAMVFLGTRGNTAAQLSKTFHFNTVEEVHSRFQSLNADINKRGASYILKLANRLYGEKTYNFLPEFLVSTQKTYGADLASVDFQHASEDARKTINQWVKGQTEGKIPELLASGMVDNMTKLVLVNAIYFKGNWKDKFMKEATTNAPFRLNKKDRKTVKMMYQKKKFAYGYIEDLKCRVLELPYQGEELSMVILLPDDIEDESTGLKKIEEQLTLEKLHEWTKPENLDFIEVNVSLPRFKLEESYTLNSDLARLGVQDLFNSSKADLSGMSGARDIFISKIVHKSFVEVNEEGTEAAAATAGIATFCMLMPEENFTADHPFLFFIRHNSSGSILFLGRFSSP
As to B1, the “NET formation in PMA-stimulated human PMNs” value in experiment [1] is “inhibits NET formation”.
